Experimental data taken from patent publication US20070167412A1, “HALOCOMBSTATINS AND METHODS OF SYNTHESIS THEREOF” (ARIZONA BOARD OF REGENTS, priority 2003, published 2007).
Converted amounts (≈) assume the structure as drawn.

Assays:
[1] = system: human umbilical vein endothelial cells (HUVEC); assay: Matrigel cord formation assay; format: cell-based; conditions: at both 0.01 and 0.001 μg/mL compared to untreated controls
Experimental: In vitro Matrigel antiangiogenesis assays were implemented according to the Developmental Therapeutics Program NCI/NIH protocols known to one of skill in the art. Matrigel, a basement membrane matrix, was obtained from BD Biosciences. Growth inhibition and cord formation assays were Conducted using human umbilical vein endothelial cells obtained from GlycoTeCh. HUVEC cells were grown in EGM-2 medium.
An aliquot of sixty microliters was placed in each well of an ice-cold 96-well plate. The plates were then left for 15 minutes at room temperature, then incubated for 30 minutes at 37° C. to permit the matrigel to polymerize. Meanwhile, HUVEC cells were harvested and diluted to a concentration of 2×10^5 cells/ml. A solution of 100 μL containing the compounds to be tested was added next. After 24 hours incubation, pictures were taken for each concentration using an inverted Nikon Diaphot microscope and D100 digital camera. Drug effect was assessed, compared to untreated controls, by measuring the length of cords formed and number ofjunctions.

Neisseria gonorrhoeae = assay: reference broth microdilution susceptibility assay; format: cell-based; conditions: Table III
Procedure, shortened: (§1)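 Susceptibility was tested by the reference broth microdilution method. Bacterial strains followed the NCCLS standard for aerobically growing bacteria (M7-A5), and yeasts followed the NCCLS broth dilution reference method for yeasts (M27-A).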

[2] = system: Stenotrophomonas maltophilia; assay: reference broth microdilution susceptibility assay; format: cell-based; conditions: Table III
Procedure, shortened: as §1

Cryptococcus neoformans [3] = assay: reference broth microdilution susceptibility assay; format: cell-based; conditions: Table III
Procedure, shortened: (§2)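 Broth microdilution, NCCLS reference protocols: M7-A5 for M. luteus and E. coli; M27-A for C. neoformans and C. albicans.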

Enterobacter cloacae = assay: reference broth microdilution susceptibility assay; format: cell-based; conditions: Table III
Procedure, shortened: as §1

Micrococcus luteus = assay: reference broth microdilution susceptibility assay; format: cell-based; conditions: Table III
Procedure, shortened: as §2

Enterococcus faecalis = assay: reference broth microdilution susceptibility assay; format: cell-based; conditions: Table III
Procedure, shortened: as §1

Escherichia coli = assay: reference broth microdilution susceptibility assay; format: cell-based; conditions: Table III
Procedure, shortened: as §2

Streptococcus pneumoniae = assay: reference broth microdilution susceptibility assay; format: cell-based; conditions: Table III
Procedure, shortened: as §1

Candida albicans = assay: reference broth microdilution susceptibility assay; format: cell-based; conditions: Table III
Procedure, shortened: as §2

Staphylococcus aureus = assay: reference broth microdilution susceptibility assay; format: cell-based; conditions: Table III
Procedure, shortened: as §1

[4] = system: microtubules in human umbilical vein endothelial cells (HUVEC); assay: disruption of microtubules in HUVEC; format: cell-based
Source text: HUVECs were isolated according to methods know to one of skill in the art (see Jaffe, E. A. et al., Culture of Human Endothelial Cells Derived From Umbilical Veins. Identification by Morphologic and Immunologic Criteria, J. Clin. Invest. 1973, 52, 2754-2756.)

Breast MCF-7 = assay: human cancer cell growth inhibition, sulforhodamine B assay; format: cell-based; conditions: 48 hours
Procedure, shortened: (§3)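 Following the standard NCI SRB assay, cultures were treated for 48 h before trichloracetic acid fixation and dye staining.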

Prostate DU-145 = assay: as above; format: cell-based; conditions: 48 hours
Procedure, shortened: as §3

Colon KM20L2 = assay: as above; format: cell-based; conditions: 48 hours
Procedure, shortened: as §3

Lung-NSC NCI-H460 = assay: as above; format: cell-based; conditions: 48 hours
Procedure, shortened: as §3

Pancreas BXPC-3 = assay: as above; format: cell-based; conditions: 48 hours
Procedure, shortened: as §3

CNS SF268 = assay: as above; format: cell-based; conditions: 48 hours
Procedure, shortened: as §3

tubulin [5] = assay: inhibition of [3H]colchicine binding to tubulin; conditions: 1.0 μM tubulin, 5.0 μM [3H]colchicine, inhibitor at 1.0 μM, 10 minutes at 37° C.
Experimental: (§4) Tubulin polymerization was evaluated by turbidimetry at 350 nm using Beckman DU7400/7500 spectrophotometers as described in detail elsewhere. […] Varying concentrations of drug were preincubated with 10 μM:M ([…]) purified tubulin (See Hamel, E., et al., Separation of Active Tubulin and Microtubule-associated Proteins by Ultracentrifiigation and Isolation of a Component Causing the Formation of Microtubule Bundles, Biochemistry 1984, 23, 4173-4184). Samples were chilled on ice, GTP (0.4 mM) was added, and polymerization was followed at 30° C. The parameter measured was extent of the reaction after 20 minutes. Coichicine binding was measured as described in detail previously. Reaction mixtures contained 1.0 μM :M tubulin, 5.0:M, [^3H]colchicine (from Dupont), and inhibitor at 1.0 μM:M. Incubation was for 10 minutes at 37° C.

purified tubulin [6] = system: T1, purified tubulin; assay: inhibition of tubulin polymerization (turbidimetry); format: biochemical; conditions: 10 μM tubulin, GTP 0.4 mM, 30° C., extent after 20 minutes; read-out: Inhibition of polymerization IC50 ± S.D.
T1 construct: other: 10 μM tubulin, GTP 0.4 mM, 30° C., extent after 20 minutes
Experimental: as §4
Tubulin Evaluations: Tubulin polymerization was evaluated by turbidimetry at […] using Beckman DU7400/7500 spectrophotometers as known to one of skill in the art. Varying concentrations of the compound were preincubated with 10 μM. […]

solubility in D2O = format: physicochemical; conditions: 1 mL D2O at 25° C.
tubulin [7] = conditions: earlier study, Lin et al. 1988; cited from earlier work
Cryptococcus neoformans [8] = conditions: previously shown, Pettit et al. 2000; cited from earlier work
[9] = earlier study, Lin et al. 1988; cited from earlier work
purified tubulin [10] = conditions: earlier study, Lin et al. 1988; cited from earlier work

With `COc1ccc(/C=C\c2cc(F)c(OC)c(OC)c2)cc1O` [Compound 11a, 3-Fluoro-4,4′,5-trimethoxy-3′-hydroxy-Z-stilbene] the “Cords length as well as junction numbers” value [1] was “markedly reduced”, the “Range of minimum inhibitory concentration, Neisseria gonorrhoeae” value (Neisseria gonorrhoeae) was 32 mg/L and the “Range of minimum inhibitory concentration, Stenotrophomonas maltophilia” value [2] was “* (no inhibition at 64 μg/ml)”. For the same compound, the “Range of minimum inhibitory concentration, Cryptococcus neoformans” value (Cryptococcus neoformans [3]) was 64 mg/L, the “Range of minimum inhibitory concentration, Enterobacter cloacae” value (Enterobacter cloacae) was “* (no inhibition at 64 μg/ml)” and the “Range of minimum inhibitory concentration, Micrococcus luteus” value (Micrococcus luteus) was 32 to 64 mg/L. For the same compound, the “Range of minimum inhibitory concentration, Enterococcus faecalis” value (Enterococcus faecalis) was “* (no inhibition at 64 μg/ml)”, the “Range of minimum inhibitory concentration, Escherichia coli” value (Escherichia coli) was “* (no inhibition at 64 μg/ml)” and the “Range of minimum inhibitory concentration, Streptococcus pneumoniae” value (Streptococcus pneumoniae) was 64 mg/L. For the same compound, the “Range of minimum inhibitory concentration, Candida albicans” value (Candida albicans) was “* (no inhibition at 64 μg/ml)”, the “Range of minimum inhibitory concentration, Staphylococcus aureus” value (Staphylococcus aureus) was “* (no inhibition at 64 μg/ml)” and the “ability to disrupt microtubules in HUVEC” value [4] was “disrupt microtubules”. The GI50 (Breast MCF-7; Homo sapiens, MCF7, Table I, read-out: Human cancer cell line inhibition (GI50) Breast adn MCF-7) was less than 0.01 mg/L, the GI50 (Prostate DU-145; Homo sapiens, DU-145, Table I, read-out: Human cancer cell line inhibition (GI50) Prostate DU-145) was less than 0.01 mg/L and the GI50 (Colon KM20L2; Homo sapiens, KM-20L2, Table I, read-out: Human cancer cell line inhibition (GI50) Colon KM20L2) was 1.1 mg/L (≈ 3.61 µM). The GI50 (Lung-NSC NCI-H460; Homo sapiens, NCI-H460, Table I, read-out: Human cancer cell line inhibition (GI50) Lung-NSC NCI-H460) was less than 0.01 mg/L, the GI50 (Pancreas BXPC-3; Homo sapiens, BXPC-3, Table I, read-out: Human cancer cell line inhibition (GI50) Pancreas-a BXPC-3) was 0.016 mg/L (≈ 0.0526 µM) and the GI50 (CNS SF268; Homo sapiens, SF-268, Table I, read-out: Human cancer cell line inhibition (GI50) CNS SF268) was less than 0.01 mg/L. The “Inhibition of colchicine binding % inhibition ± S.D.” value (tubulin [5]) was 75 ± 6% and the IC50 (purified tubulin [6]) was 1.5 ± 0.2 µM.

With `C1CCNCC1.C1CCNCC1.COc1ccc(/C=C\c2cc(I)c(OC)c(OC)c2)cc1OP(=O)(O)O` [O] the “human cancer cell line growth inhibition (GI50) Breast MCF-7” value (Breast MCF-7; Table Ia) was 0.0065 mg/L, the “human cancer cell line growth inhibition (GI50) Prostate DU-145” value (Prostate DU-145; Table Ia) was 0.0029 mg/L and the “human cancer cell line growth inhibition (GI50) Colon KM20L2” value (Colon KM20L2; Table Ia) was 0.51 mg/L. For the same compound, the “human cancer cell line growth inhibition (GI50) Lung-NSC NCI-H460” value (Lung-NSC NCI-H460; Table Ia) was 0.0036 mg/L, the “human cancer cell line growth inhibition (GI50) Pancreas BXPC-3” value (Pancreas BXPC-3; Table Ia) was 0.32 mg/L and the “human cancer cell line growth inhibition (GI50) CNS SF268” value (CNS SF268; Table Ia) was 0.0044 mg/L. The Solubility (solubility in D2O) was “≧4 mg/mL”.

For “combretastatin A-3 [Compound 3a, reference compound]”, the “activity relative to CA4 (1a) as an inhibitor of colchicine binding to tubulin” value (tubulin [7]) is given as “about one fifth as active”, the “Human cancer cell line inhibition (GI50) Breast adn MCF-7” value (Breast MCF-7; Table I) is given as 0.49 mg/L and the “Human cancer cell line inhibition (GI50) Prostate DU-145” value (Prostate DU-145; Table I) is given as 0.0043 mg/L. The “Human cancer cell line inhibition (GI50) Colon KM20L2” value (Colon KM20L2; Table I) was 1.2 mg/L, the “Human cancer cell line inhibition (GI50) Lung-NSC NCI-H460” value (Lung-NSC NCI-H460; Table I) was 0.19 mg/L and the “Human cancer cell line inhibition (GI50) Pancreas-a BXPC-3” value (Pancreas BXPC-3; Table I) was 2.3 mg/L. For the same compound, the “Human cancer cell line inhibition (GI50) CNS SF268” value (CNS SF268; Table I) was 0.0083 mg/L, the “inhibition of growth of the pathogenic fungus Cryptococcus neoformans” value (Cryptococcus neoformans [8]) was “inhibited growth” and the “activity relative to CA4 (1a) as an inhibitor of cell growth” value [9] was “about one seventh as active”. For the same compound, the “activity relative to CA4 (1a) as an inhibitor of tubulin assembly” value (purified tubulin [10]) was “about half as active”.
